Test results taken from patent US20110212108A1, “NEUREGULIN/ERBB SIGNALING AND INTEGRIN” (THE REGENTS OF THE UNIVERSITY OF CALIFORNIA, priority 2008, published 2011).

B1: 3KE (175-241): NRG1α (175-241) with Lys181/Lys185/Lys187 mutated to Glu, SEQ ID NO:6 (3KE, long version) (protein)
chain: GTSHLVECAEEEETFCVNGGECFMVKDLSNPSRYLCKCQPGFTGARCTENVPMKVQNQEKAEELYQK
modifications: integrin-binding site within human neuregulin, residues 175-241of human neuregulin 1alpha, long version, 3KE mutant

What was measured:
[1] = system: Human MCF-7 breast cancer cells; experiment: MCF-7 cell proliferation, MTS assay; assay type: cell-based; settings: serum-starved overnight, cultured 48 h, P=0.0018
Protocol: FIG. 12. Effect of wt and 3KE NRG1 (175-222) on the proliferation of MCF-7 cells. Human MCF-7 breast cancer cells were serum-starved overnight and cultured 48 h with wt or mutant GST-NRG1 (175-222). Cell proliferation was measured by using MTS assays. […] P=0.0018 by 2-way ANOVA.
Cell proliferation: cells were starved by culturing DMEM with low-level FCS (e.g., 0.4%) overnight and then treated with the wt or mutant NRG1 (175-222) (up to 100 ng/ml). The cells were harvested in 15 min to 6 h after stimulation and cell lysates analyzed by western blotting with antibodies specific to signaling molecules. Alternatively, cells were cultured for 24-48 h after stimulation for testing proliferation or cell viability by MTS assays. Statistical analysis and calculation of kinetic constants were performed using Prism software (Graphpad).

[2] = system: Met-1 tumor (a highly metastatic mouse breast cancer); experiment: Met-1 tumor transplanted subcutaneously into nude mice; assay type: in vivo; settings: 100 ng/mouse/day intraperitoneally, 5 days a week; P<0.0001
Protocol: FIG. 15. 3KE (175-222) mutant suppressed tumorigenesis in a xenograft experiment with highly metastatic Met-1 tumor. Met-1 tumor (a highly metastatic mouse breast cancer) (4×4×4 mm) was transplanted subcutaneously into nude mice. The 3KE (175-222) mutant or vehicle was intraperitoneally injected ([…] 5 days a week) to mice, starting day 0. Data are shown as means+/−SEM. P<0.0001 by 2-way ANOVA (n=2 for control and n=3 for 3KE).
It was tested whether intraperitoneal injection of 3KE (175-222) can affect tumor growth in vivo. The Met-1 line (a highly metastatic mouse mammary tumor) (Guy et al. 1992; Cheung et al. 1997) has the polyoma virus middle T (PyV-MT) transgene, and metastasize with 100% efficiency. Met-1 (4mm×4 mm×4 mm) was transplanted to nude mice and 3KE (175-222) (100 ng/mouse/day 5 days a week) was intraperitoneally injected.

[3] = system: mammary intraepithelial neoplasia-outgrowth (MIN-O); experiment: Outgrowth of precancer (MIN-O) in FVB mice; assay type: in vivo; settings: 200 ng/day/mouse intraperitoneally, 5 days a week for 4 weeks; P=0.0355
Protocol: FIG. 16. Inhibitory effect of daily intraperitoneal injection of 3KE (175-222) on the outgrowth of precancer (MIN-O) in FVB mice. MIN-O was transplanted into fat pads of FVB mice (two per mice) and 3KE (175-222) (200 ng/mouse/day) was injected 5 days a week for 4 weeks starting day 0. After 28 days, mice were sacrificed and the dimensions of tumors were measured. Since MIN-O grows as a thin layer, the two-dimensional size was calculated and the thickness was ignored. P=0.0355 by ANOVA between control and 3KE (175-222).
To study the effect of 3KE (175-222) on the premalignant cancer, transplantable mammary intraepithelial neoplasia-outgrowth (MIN-O) tissue lines, which were derived from hyperplastic mammary lesions in young Tg(MMTV-PyV-mT) females (Maglione et al. 2004), were used. The resulting lesions mimic the biological behavior, molecular biology, and histopathology of human ductal carcinoma in situ (Maglione et al. 2004). One mm^3 pieces of the 8w-BMINO tissues (Maglione et al. 2004) were transplanted to gland-cleared no. 4 mammary fat pads of 3-week-old FVB females bilaterally.

[4] = system: HaCAT keratinocytes; experiment: ERK1/2 activation in HaCAT keratinocytes, Western blotting; assay type: cell-based; settings: serum-starved; background Erk1/2 level high
Protocol: FIG. 18. […] HaCAT keratinocytes were serum-starved and incubated with wt NRG1 (175-222) or 3KE (175-222). The levels of Erk1/2 activation were determined by Western blotting.

[5] = system: Met-1 mouse breast cancer; experiment: Met-1 mouse breast cancer transplanted to fat pad of FVB syngeneic mice; assay type: in vivo; settings: 200 ng/mouse/day intraperitoneally from day 5
Protocol: FIG. 23. Effect of the 3KE (175-241) mutation on in vivo tumorigenesis. Top: Growth curve. […] (P<0.0001 by two way ANOVA.) Bottom: Tumor size at day 18.
In the present invention, Met-1 mouse breast cancer fragment (2×2×2 mm) was transplanted to fat pad of FVB syngeneic mice (2 per animal, 5-6 mice per group) (day 0). At day 5, intraperitoneal injection of 200 ng/mouse/day wt NRG1, 3KE, heat-denatured 3KE or vehicle (PBS) everyday were started (FIG. 23). PBS contains 0.1 mg/ml mouse serum albumin as carrier. Tumor size was measured using caliper twice a week (FIG. 23). Tumor size was calculated using V=0.4×(a×b×b) where a is the longest diameter and b is a diameter perpendicular to a. Statistical analysis was performed using Prism software package.

Molecule	Induction of proliferation of MCF-7 cells [1]	Tumor growth of Met-1 in nude mice [2]	Outgrowth of MIN-O in FVB mice [3]	ERK1/2 activation in HaCAT cells [4]	Tumor growth curve of Met-1 in FVB mice ([5]; P<0.0001 by two way ANOVA)	Tumor size at day 18, Met-1 in FVB mice ([5]; t-test)
3KE (175-222): NRG1 (175-222) with Lys181/Lys185/Lys187 mutated to Glu; GTSHLVECAEEEETFCVNGGECFMVKDLSNPSRYLCKCQPGFTGARCT (SEQ ID NO:11) (integrin-binding site within human neuregulin, 3KE mutant, short version)	did not	markedly suppressed tumor growth	effectively suppressed the outgrowth of MIN-O tumors	suppressed levels of ERK1/2 activation	–	–
wt NRG1 (175-222): wild type human neuregulin 1 fragment, EGF-like domain, residues 175-222 of SEQ ID NO:4 (SEQ ID NO:3) (GTSHLVKCAEKEKTFCVNGGECFMVKDLSNPSRYLCKCQPGFTGARCT; integrin-binding site within human neuregulin 1 EGF-like region and portion of alpha domain, residues 175-222 of human neuregulin 1 alpha) [reference compound]	induced cell proliferation	–	–	–	–	–
B1	–	–	–	–	suppressed tumor growth	suppressed tumor growth
